Data as given in PubChem BioAssay (NCI).
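Briefly, cells in 96-well plates were exposed to five compound concentrations for 48 h, and endpoints were estimated by linear interpolation. TGI marks complete inhibition of growth.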

Assays:
Experiment in all cases: inhibition of tumour cell growth, NCI panel, 48 h
[1] = tested on: 786-0 renal
[2] = tested on: A549 NSCLC
[3] = tested on: ACHN renal
[4] = tested on: CAKI-1 renal
[5] = tested on: CCRF-CEM leukemia
[6] = tested on: COLO 205 colon
[7] = tested on: DU-145 prostate
[8] = tested on: EKVX NSCLC
[9] = tested on: HCC-2998 colon
[10] = tested on: HCT-116 colon
[11] = tested on: HCT-15 colon
[12] = tested on: HL-60(TB) leukemia
[13] = tested on: HOP-62 NSCLC
[14] = tested on: HOP-92 NSCLC
[15] = tested on: HT29 colon
[16] = tested on: IGROV1 ovarian
[17] = tested on: K-562 leukemia
[18] = tested on: KM12 colon
[19] = tested on: LOX IMVI melanoma
[20] = tested on: M14 melanoma
[21] = tested on: MALME-3M melanoma
[22] = tested on: MCF7 breast
[23] = tested on: MDA-MB-231 breast
[24] = tested on: MDA-MB-435
[25] = tested on: MOLT-4 leukemia
[26] = tested on: NCI-H226 lung
[27] = tested on: NCI-H23 lung
[28] = tested on: NCI-H460 lung
[29] = tested on: NCI-H522 lung
[30] = tested on: NCI/ADR-RES ovarian
[31] = tested on: OVCAR-3 ovarian
[32] = tested on: OVCAR-4 ovarian
[33] = tested on: OVCAR-5 ovarian
[34] = tested on: OVCAR-8 ovarian
[35] = tested on: PC-3 prostate
[36] = tested on: RXF 393 renal
[37] = tested on: SF-268 CNS
[38] = tested on: SF-295 CNS
[39] = tested on: SF-539 CNS
[40] = tested on: SK-MEL-2 melanoma
[41] = tested on: SK-MEL-28 melanoma
[42] = tested on: SK-MEL-5 melanoma
[43] = tested on: SK-OV-3 ovarian
[44] = tested on: SN12C renal
[45] = tested on: SNB-19 CNS
[46] = tested on: SNB-75 CNS
[47] = tested on: SR leukemia
[48] = tested on: SW-620 colon
[49] = tested on: T-47D breast
[50] = tested on: TK-10 renal
[51] = tested on: U251 CNS
[52] = tested on: UACC-257 melanoma
[53] = tested on: UACC-62 melanoma
[54] = tested on: UO-31 renal
[55] = tested on: BT-549 breast
[56] = tested on: RPMI-8226 leukemia

With `NC(Cc1c2ccccc2cc2ccccc12)C(=O)O` (stereo not drawn) the TGI [1] was greater than 100 µM, the TGI [2] was greater than 100 µM and the TGI [3] was greater than 100 µM. The TGI [4] was greater than 100 µM, the TGI [5] was greater than 100 µM and the TGI [6] was greater than 100 µM. It also gave a TGI [7] greater than 100 µM, a TGI [8] greater than 100 µM and a TGI [9] greater than 100 µM. The TGI [10] was greater than 100 µM, the TGI [11] was greater than 100 µM and the TGI [12] was greater than 100 µM. For the same compound, the TGI [13] was greater than 100 µM, the TGI [14] was greater than 100 µM and the TGI [15] was greater than 100 µM. For the same compound, the TGI [16] was greater than 100 µM, the TGI [17] was greater than 100 µM and the TGI [18] was greater than 100 µM. The TGI [19] was greater than 100 µM, the TGI [20] was greater than 100 µM and the TGI [21] was greater than 100 µM. The TGI [22] was greater than 100 µM, the TGI [23] was greater than 100 µM and the TGI [24] was greater than 100 µM. The TGI [25] was 94.4 µM, the TGI [26] was greater than 100 µM and the TGI [27] was greater than 100 µM. It also gave a TGI [28] greater than 100 µM, a TGI [29] greater than 100 µM and a TGI [30] greater than 100 µM. For the same compound, the TGI [31] was greater than 100 µM, the TGI [32] was greater than 100 µM and the TGI [33] was greater than 100 µM. It also gave a TGI [34] greater than 100 µM, a TGI [35] greater than 100 µM and a TGI [36] greater than 100 µM. It also gave a TGI [37] greater than 100 µM, a TGI [38] greater than 100 µM and a TGI [39] greater than 100 µM. The TGI [40] was greater than 100 µM, the TGI [41] was greater than 100 µM and the TGI [42] was greater than 100 µM. For the same compound, the TGI [43] was greater than 100 µM, the TGI [44] was greater than 100 µM and the TGI [45] was greater than 100 µM. For the same compound, the TGI [46] was 94.9 µM, the TGI [47] was greater than 100 µM and the TGI [48] was greater than 100 µM. The TGI [49] was greater than 100 µM, the TGI [50] was greater than 100 µM and the TGI [51] was greater than 100 µM. For the same compound, the TGI [52] was greater than 100 µM, the TGI [53] was greater than 100 µM and the TGI [54] was greater than 100 µM.
With `O=c1[nH]nc(Nc2ccc(Cl)cc2)c2nnn(-c3ccc([N+](=O)[O-])cc3)c12` the TGI [1] was 35.5 µM, the TGI [2] was 29.1 µM and the TGI [3] was greater than 100 µM. The TGI [55] was greater than 100 µM, the TGI [4] was greater than 100 µM and the TGI [5] was 61.7 µM. It also gave a TGI [6] of 49.7 µM, a TGI [7] of 48.6 µM and a TGI [8] greater than 100 µM. The TGI [9] was 64.7 µM, the TGI [10] was 42.4 µM and the TGI [11] was greater than 100 µM. It also gave a TGI [12] greater than 100 µM, a TGI [13] greater than 100 µM and a TGI [14] of 46.9 µM. The TGI [15] was greater than 100 µM, the TGI [16] was greater than 100 µM and the TGI [17] was 29.9 µM. It also gave a TGI [18] greater than 100 µM, a TGI [19] of 53.1 µM and a TGI [20] greater than 100 µM. It also gave a TGI [21] greater than 100 µM, a TGI [22] of 47.4 µM and a TGI [23] greater than 100 µM. The TGI [24] was greater than 100 µM, the TGI [25] was 45.2 µM and the TGI [26] was greater than 100 µM. It also gave a TGI [27] of 24.9 µM, a TGI [28] greater than 100 µM and a TGI [29] of 18 µM. The TGI [30] was greater than 100 µM, the TGI [32] was greater than 100 µM and the TGI [33] was greater than 100 µM. It also gave a TGI [34] of 48 µM, a TGI [35] of 68.8 µM and a TGI [56] greater than 100 µM. It also gave a TGI [37] greater than 100 µM, a TGI [38] greater than 100 µM and a TGI [39] of 39.6 µM. For the same compound, the TGI [40] was 82.2 µM, the TGI [42] was 22.7 µM and the TGI [44] was greater than 100 µM. The TGI [45] was greater than 100 µM, the TGI [46] was greater than 100 µM and the TGI [47] was greater than 100 µM. The TGI [48] was greater than 100 µM, the TGI [50] was 46.7 µM and the TGI [51] was 46 µM. It also gave a TGI [52] greater than 100 µM.
